Laboratory results reported in patent US20250313563A1, “GLYCOGEN SYNTHASE KINASE 3 INHIBITORS AND USES THEREOF” (The Broad Institute, Inc., priority 2022, published 2025).
Read-outs that look alike come from different tables or passages of the source.

Columns and labels:
GSK3β = GSK3β (Rattus norvegicus (Rat), UniProt P18266); assay: In vivo target engagement assay (chemoproteomics, kinobeads), GSK3β; details: P10 rat cortex
Experimental: Chemoproteomics competition was used to evaluate inhibitor selectivity and target engagement in vivo. Frozen cortexes were prepared for homogenization with 1.2 mL of Lysis Buffer (50 mM Tris-HCl, 0.8% NP-40 ((octylphenoxy poly(ethyleneoxy) ethanol)), 5% glycerol, 150 mM NaCl, 1.5 mM MgCl2, 25 mM NaF, 1 mM sodium vanadate, 1 mM DTT, pH 7.5 and supplemented with protease inhibitors). Tissues were homogenized in FastPrep-24 5G instrument at maximum oscillations for 20 seconds. The resulting brain homogenate was clarified by centrifugation for 1 h at 145 000 g, 4° C. The protein concentration of the supernatant was determined by BCA assay and each sample was diluted to final concentration of 5 mg/mL with lysis buffer. […] The dry peptide mixture was reconstituted in 15 μL of 0.1% trifluoro acetic acid and analyzed on ID nanoLC-MS/MS platform using a standardized 140 min method. Peptides were separated on an Easy-Spray column (75 μm×50 cm, PepMAP C18, 1.9 μm) at 250 nL/min, analyzed on a QExactive HF mass spectrometer at data dependent acquisition (DDA) mode with MS1 at 60,000 and MS2 at 15,000 resolution, respectively. […]
To measure direct target engagement of the compound for both GSK3α and GSK3β competitive chemoproteomics methodology was used. […] Enriched proteins were analyzed by liquid chromatography coupled with tandem mass spectrometry. […]

[1] = molecular target: GSK3α (GST-full length GSK3α) (Homo sapiens (Human), UniProt P49840); assay: GSK3α TR-FRET kinase assay; type: biochemical; details: geometric mean, GMean
How it was run: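 Readout: anti-pSer641 Tb antibody/streptavidin-d2 signal after 60 min, expressed as 665/615 ratio and fitted versus log concentration for IC50. Enzyme: 1 nM GST-GSK3 (α or β), compound-preincubated 30 min. Conditions: pH 7.5 Tris buffer with MgCl2, DTT, BSA; ATP at 4 or 2 μM, or 1 mM; 100 min.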

GSK3β, sequence (P18266 whole entry): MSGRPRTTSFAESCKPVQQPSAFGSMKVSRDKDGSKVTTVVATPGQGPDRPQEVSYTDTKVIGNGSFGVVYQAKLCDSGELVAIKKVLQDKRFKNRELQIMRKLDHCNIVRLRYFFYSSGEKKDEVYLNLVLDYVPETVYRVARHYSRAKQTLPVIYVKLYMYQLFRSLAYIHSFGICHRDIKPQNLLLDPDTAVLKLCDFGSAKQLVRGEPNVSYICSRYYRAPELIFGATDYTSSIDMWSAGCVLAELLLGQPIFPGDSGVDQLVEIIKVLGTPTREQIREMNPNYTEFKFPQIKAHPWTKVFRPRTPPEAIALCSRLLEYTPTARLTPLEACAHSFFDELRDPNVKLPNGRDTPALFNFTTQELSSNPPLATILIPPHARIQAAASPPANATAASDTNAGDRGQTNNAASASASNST
GSK3α (GST-full length GSK3α), sequence (P49840 whole entry): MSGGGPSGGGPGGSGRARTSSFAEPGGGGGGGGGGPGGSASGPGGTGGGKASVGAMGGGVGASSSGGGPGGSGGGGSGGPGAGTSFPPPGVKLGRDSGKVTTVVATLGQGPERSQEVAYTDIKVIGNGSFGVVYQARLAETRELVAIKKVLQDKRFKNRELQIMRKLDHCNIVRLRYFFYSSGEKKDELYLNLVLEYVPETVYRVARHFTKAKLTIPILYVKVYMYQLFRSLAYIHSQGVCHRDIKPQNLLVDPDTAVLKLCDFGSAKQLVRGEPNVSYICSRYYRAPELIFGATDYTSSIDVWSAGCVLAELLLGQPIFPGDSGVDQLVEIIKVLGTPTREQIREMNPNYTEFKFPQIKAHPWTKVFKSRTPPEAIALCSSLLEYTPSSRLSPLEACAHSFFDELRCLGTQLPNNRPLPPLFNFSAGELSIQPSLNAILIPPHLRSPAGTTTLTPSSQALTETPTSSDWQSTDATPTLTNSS

CCC1(c2cccc(C(F)(F)F)c2)C2=C(Nc3n[nH]cc31)C(F)C(C)(C)CC2=O (single isomer, unassigned) [Compound 837646, 4-ethyl-8-fluoro-7,7-dimethyl-4-(3-(trifluoromethyl)phenyl)-2,4,6,7,8,9-hexahydro-5H-pyrazolo[3,4-b]quinolin-5-one]
binding to GSK3β, 24 hr (GSK3β; 24 hr): no significant binding detected
target engagement for GSK3β, 3 hours (GSK3β; three hours after dosing (Cmax, 60 mg/kg)): 40%
IC50 ([1]; 1 nM GSK3α, 4 μM ATP, 30 minute preincubation, read-out: GSK3-A TR-FRET BIOCHEMICAL (TR-FRET), IC50): ≤ 100 nM
IC50 ([1]; GSK3-A (TR-FRET 1 mM ATP), IC50, 1 mM ATP): ≤ 100 nM
